From patent publication US20250073249A1, “STEROID COMPOUND, AND PREPARATION METHOD THEREFOR AND USE THEREOF” (SHANGHAI INSTITUTE OF MATERIA MEDICA, CHINESE ACADEMY OF …, priority 2022, published 2025)

Key:
[1] = target: T1, AR(T877A) (Homo sapiens, UniProt P10275, T878A); assay: Mutant AR antagonistic activity test, T877A (reporter gene in HEK293 cells); assay type: cell-based; settings: for IC50: HEK293 cells, DHT 10 nM, 24 hours, read-out: T877A IC50(nM) 1st gen AR antagonist resistant mutation
T1 construct: expressed in transfected cells; host or cells: HEK293
T1 sequence (P10275 1-920 T878A): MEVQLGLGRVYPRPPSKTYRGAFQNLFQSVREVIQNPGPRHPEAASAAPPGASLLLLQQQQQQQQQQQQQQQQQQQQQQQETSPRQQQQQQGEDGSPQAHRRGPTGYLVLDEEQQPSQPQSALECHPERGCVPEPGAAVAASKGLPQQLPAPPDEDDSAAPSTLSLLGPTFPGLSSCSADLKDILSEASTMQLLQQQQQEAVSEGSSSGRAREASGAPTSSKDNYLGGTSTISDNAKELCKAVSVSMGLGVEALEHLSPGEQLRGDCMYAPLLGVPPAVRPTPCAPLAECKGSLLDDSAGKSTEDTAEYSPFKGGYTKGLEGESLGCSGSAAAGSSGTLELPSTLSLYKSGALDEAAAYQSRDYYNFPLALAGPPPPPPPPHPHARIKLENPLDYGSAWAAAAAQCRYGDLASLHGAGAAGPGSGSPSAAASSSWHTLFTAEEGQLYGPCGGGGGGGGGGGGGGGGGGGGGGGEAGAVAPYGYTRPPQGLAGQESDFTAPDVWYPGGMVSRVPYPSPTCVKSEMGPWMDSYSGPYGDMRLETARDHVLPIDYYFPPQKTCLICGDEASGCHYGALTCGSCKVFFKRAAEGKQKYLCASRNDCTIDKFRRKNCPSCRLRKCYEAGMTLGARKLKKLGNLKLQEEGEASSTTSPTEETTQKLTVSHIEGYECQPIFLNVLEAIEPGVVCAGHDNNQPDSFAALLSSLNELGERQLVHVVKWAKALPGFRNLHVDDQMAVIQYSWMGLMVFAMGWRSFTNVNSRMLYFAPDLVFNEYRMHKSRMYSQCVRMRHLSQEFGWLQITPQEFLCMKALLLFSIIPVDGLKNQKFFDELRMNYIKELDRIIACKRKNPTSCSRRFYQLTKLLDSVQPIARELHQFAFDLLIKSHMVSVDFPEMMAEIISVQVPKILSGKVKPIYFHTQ
Protocol: HEK293 cells were cultured in DMEM supplemented with 10% FBS and 1% GlutaMax at 37° C. with 5% CO2. The day before transfection, the medium was changed to DMEM containing 10% charcoal-stripped FBS and 1% GlutaMax. […] The cell suspension was diluted with cell seeding solution, and the transfection reagent was added to achieve 500,000 cells/mL. Subsequently, 90 μL of cell suspension was seeded into each well of the assay plate. The next day, compounds were prepared: starting from 8 mM, 3-fold serial dilutions were performed in DMSO for a total of 8 points, then 500 nL was transferred to the compound plate using Echo. The compounds were then diluted with 40 μL of medium to 10× final concentration, and 10 μL was transferred to the cell plate and incubated at 37° C. for 30 minutes. Subsequently, 10 nL of DHT at a final concentration of 10 nM was transferred to each well of the assay plate using TECAN. After 24 hours of incubation, 100 μL of Steady-Glo was added to the assay plate and read on an Envision reader. Data were determined and analyzed using GraphPad Prism.

[2] = system: LNCaP cells; assay: In vitro LNCaP cell proliferation inhibition test (CellTiter-Glo); assay type: cell-based; settings: for Maximum Inhibition (%) / IC50: 6 days; for IC50: Homo sapiens, read-out: Anti-proliferative activity IC50; for Anti-proliferative activity, fold improvement compared to abiraterone: ratio to abiraterone IC50
Protocol: (§1) The cells were then digested with trypsin and counted using an automated cell counter to determine cell density. The cell suspension was diluted to the desired density in growth medium. Subsequently, 100 μL of the cell suspension was seeded into 96-well plates and incubated at 37° C. with 5% CO2 for 24 hours. 10 μL of drug solution (including 3-fold serial dilutions of compounds or DMSO) was added to each well, and the plates were incubated at 37° C. with 5% CO2 for 6 days. Prior to measurement, the assay plates were equilibrated to room temperature. 40 μL of CellTiter-Glo® reagent was added to each well. The plates were mixed on an orbital shaker for 2 minutes to induce cell lysis. After incubation at room temperature for 60 minutes to stabilize the luminescence signal, the plates were read on an Envision plate reader.

[3] = system: 22RV1 prostate cancer cells; assay: Anti-proliferative activity against resistant 22RV1 cells expressing AR-V7; assay type: cell-based; settings: Homo sapiens; 22RV1 cells expressing AR-V7 splice variant; read-out: Antiproliferative activity IC50
Protocol: as §1
The experimental procedure was essentially the same as that for LNCaP cells.

[4] = system: androgen-dependent organs; assay: Hershberger assay, in vivo anti-androgenic activity; parameters: species or system Sprague-Dawley rats; settings: castrated male rats, 0.4 mg/kg testosterone propionate, 20 mg/kg QD oral, 10 days
Protocol: The Hershberger assay was used to detect the in vivo anti-androgenic signal transduction activity of the compounds of the present invention. In this assay, compounds of the present invention (14, 33 and 37) were administered to prepubertal castrated male Sprague-Dawley rats in the presence of 0.4 mg/kg testosterone propionate (TP), and the weights of androgen-dependent organs were measured. Dosing continued for 10 days, and measurements were made 24 hours after the last dose. The degree of AR antagonism and subsequent organ growth inhibition was evaluated by comparison with castrated controls. The test compounds were orally administered at 20 mg/kg QD and the endpoint evaluation was performed by measuring the weight changes of 2 androgen-sensitive organs (ASO): seminal vesicles with coagulating glands (SVCG) and ventral prostate (VP). Enzalutamide (ENZ) was used as a positive control.

Cc1cn(C2=CCC3C4CC=C5C[C@@H](NC(=O)c6ccncc6)CC[C@]5(C)C4CC[C@]23C)cn1 (stereo partly drawn) [Compound 14, N-((3S,10R,13S)-10,13-dimethyl-17-(4-methyl-1H-imidazol-1-yl)-2,3,4,7,8,9,10,11,12,13,14,15-dodecahydro-1H-cyclopenta[a]phenanthren-3-yl)isonicotinamide]
IC50 [1]: 209 nM
Maximum Inhibition (%) [2]: 99.35%
IC50 [2]: 205 nM
Anti-proliferative activity, fold improvement compared to abiraterone [2]: 15.8 fold
IC50 [3]: 591 nM
Growth of androgen-dependent organs (SVCG and VP weight) compared to the castration group [4]: significantly inhibited the growth of androgen-dependent organs
In vivo anti-androgenic activity compared with enzalutamide [4]: activity comparable to enzalutamide

Cc1cn(C2=CCC3C4CC=C5C[C@@H](NC(=O)c6ccc(F)cc6F)CC[C@]5(C)C4CC[C@]23C)cn1 (stereo partly drawn) [Compound 37, N-((3S,10R,13S)-17-(4-methyl-1H-imidazol-1-yl)-10,13-dimethyl-2,3,4,7,8,9,10,11,12,13,14,15-dodecahydro-1H-cyclopenta[a]phenanthren-3-yl)-2,4-difluorobenzamide]
IC50 [1]: 281 nM
Maximum Inhibition (%) [2]: 95.85%
IC50 [2]: 327 nM
Anti-proliferative activity, fold improvement compared to abiraterone [2]: 8.6 fold
IC50 [3]: 452 nM
Growth of androgen-dependent organs (SVCG and VP weight) compared to the castration group [4]: significantly inhibited the growth of androgen-dependent organs
In vivo anti-androgenic activity compared with enzalutamide [4]: activity comparable to enzalutamide

Cc1cn(C2=CCC3C4CC=C5C[C@@H](NC(=O)c6ccc(F)cc6)CC[C@]5(C)C4CC[C@]23C)cn1 (stereo partly drawn) [Compound 33, N-((3S,10R,13S)-17-(4-methyl-1H-imidazol-1-yl)-10,13-dimethyl-2,3,4,7,8,9,10,11,12,13,14,15-dodecahydro-1H-cyclopenta[a]phenanthren-3-yl)-4-fluorobenzamide]
IC50 [1]: 79.8 nM
T877A antagonistic activity, fold improvement compared to enzalutamide ([1]; ratio to enzalutamide IC50): 1.4 fold
Maximum Inhibition (%) [2]: 102.9%
IC50 [2]: 478 nM
Anti-tumor activity and efficacy compared to enzalutamide ([2]; in words): comparable anti-tumor activity but significantly superior anti-tumor efficacy compared to enzalutamide
IC50 [3]: 624 nM
Growth of androgen-dependent organs (SVCG and VP weight) compared to the castration group [4]: significantly inhibited the growth of androgen-dependent organs
In vivo anti-androgenic activity compared with enzalutamide [4]: activity comparable to enzalutamide

Cc1cn(C2=CCC3C4CC=C5C[C@@H](NC(=O)c6ccc(S(C)(=O)=O)cc6)CC[C@]5(C)C4CC[C@]23C)cn1 (stereo partly drawn) [Compound 35, N-((3S,10R,13S)-17-(4-methyl-1H-imidazol-1-yl)-10,13-dimethyl-2,3,4,7,8,9,10,11,12,13,14,15-dodecahydro-1H-cyclopenta[a]phenanthren-3-yl)-4-(methylsulfonyl)benzamide]
IC50 [1]: 462 nM
Maximum Inhibition (%) [2]: 96.85%
IC50 [2]: 527 nM
IC50 [3]: 651 nM
